According to patent publication US10844077B2, “Thiazolyl-containing compounds for treating proliferative diseases” (Dana-Farber Cancer Institute, Inc., priority 2014, dated 2020):
Values joined by “and” are separate entries in the source; they are usually repeats but may differ in a detail not shown here. Equal entries are not always repeated. Where two headings read alike, the source gives them in different places.

Tests used:
Type in all cases: cell-based
kinases in BCWM.1 cells [1] = target: kinases in BCWM.1 cells (Homo sapiens, UniProt P53350); details: PLK1; Lys1; 1 μM, 90 min; GF
Description: (§1) The cells were harvested and lysed. […] Bound kinases were identified and quantitated by ACTIVX as described in Patricelli et al., Biochemistry, 2007, 46(2): 350-358. The compounds were tested in duplicates against duplicate or quadruplicate control samples.

kinases in BCWM.1 cells [2] = target: kinases in BCWM.1 cells (Homo sapiens, UniProt P51812); details: Lys2, 1 μM, 90 min, GF
Description: as §1

kinases in BCWM.1 cells [3] = target: kinases in BCWM.1 cells (Homo sapiens, UniProt O00329); details: PIK3CD; ATP; 1 μM, 90 min; GF
Description: as §1

kinases in BCWM.1 cells [4] = target: kinases in BCWM.1 cells (Homo sapiens, UniProt P48426); details: PIP4K2A; ATP; 1 μM, 90 min; GF
kinases in BCWM.1 cells (Homo sapiens, UniProt P48426), sequence (P48426 2-406 limits assumed): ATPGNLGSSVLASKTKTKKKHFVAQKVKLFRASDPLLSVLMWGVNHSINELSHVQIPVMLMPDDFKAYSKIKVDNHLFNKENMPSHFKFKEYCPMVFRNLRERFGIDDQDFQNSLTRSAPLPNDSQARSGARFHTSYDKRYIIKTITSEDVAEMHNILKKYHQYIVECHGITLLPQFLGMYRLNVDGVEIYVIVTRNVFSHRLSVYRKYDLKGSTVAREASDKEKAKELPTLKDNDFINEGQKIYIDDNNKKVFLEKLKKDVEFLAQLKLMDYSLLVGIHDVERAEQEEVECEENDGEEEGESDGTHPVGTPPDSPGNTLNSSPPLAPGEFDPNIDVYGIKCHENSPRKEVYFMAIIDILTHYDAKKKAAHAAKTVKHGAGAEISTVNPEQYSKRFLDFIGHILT
Description: as §1

kinases in BCWM.1 cells [5] = target: kinases in BCWM.1 cells (Homo sapiens, UniProt Q9UKI8); details: TLK1; Lys2; 1 μM, 90 min; GF
Description: as §1

kinases in BCWM.1 cells [6] = target: kinases in BCWM.1 cells (Homo sapiens, UniProt Q16539); details: p38a, 1 μM, 90 min, GF
kinases in BCWM.1 cells (Homo sapiens, UniProt Q16539), sequence (Q16539 2-360 limits assumed): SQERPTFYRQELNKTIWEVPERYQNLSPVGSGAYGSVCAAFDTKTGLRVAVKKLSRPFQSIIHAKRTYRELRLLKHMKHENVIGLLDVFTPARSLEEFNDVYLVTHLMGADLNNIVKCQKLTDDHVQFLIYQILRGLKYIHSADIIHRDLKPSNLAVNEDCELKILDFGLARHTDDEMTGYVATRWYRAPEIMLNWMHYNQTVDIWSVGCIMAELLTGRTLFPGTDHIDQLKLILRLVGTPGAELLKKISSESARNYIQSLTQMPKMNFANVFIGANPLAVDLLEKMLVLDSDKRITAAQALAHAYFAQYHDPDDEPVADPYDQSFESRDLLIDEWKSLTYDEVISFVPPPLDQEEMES
Description: as §1

kinases in BCWM.1 cells [7] = details: 1 μM, GF
Description: as §1

kinases in BCWM.1 cells [8] = target: kinases in BCWM.1 cells (Homo sapiens, UniProt O95747); details: OSR1; Lys2; 1 μM, 90 min; GF
kinases in BCWM.1 cells (Homo sapiens, UniProt O95747), sequence (O95747 2-527 limits assumed): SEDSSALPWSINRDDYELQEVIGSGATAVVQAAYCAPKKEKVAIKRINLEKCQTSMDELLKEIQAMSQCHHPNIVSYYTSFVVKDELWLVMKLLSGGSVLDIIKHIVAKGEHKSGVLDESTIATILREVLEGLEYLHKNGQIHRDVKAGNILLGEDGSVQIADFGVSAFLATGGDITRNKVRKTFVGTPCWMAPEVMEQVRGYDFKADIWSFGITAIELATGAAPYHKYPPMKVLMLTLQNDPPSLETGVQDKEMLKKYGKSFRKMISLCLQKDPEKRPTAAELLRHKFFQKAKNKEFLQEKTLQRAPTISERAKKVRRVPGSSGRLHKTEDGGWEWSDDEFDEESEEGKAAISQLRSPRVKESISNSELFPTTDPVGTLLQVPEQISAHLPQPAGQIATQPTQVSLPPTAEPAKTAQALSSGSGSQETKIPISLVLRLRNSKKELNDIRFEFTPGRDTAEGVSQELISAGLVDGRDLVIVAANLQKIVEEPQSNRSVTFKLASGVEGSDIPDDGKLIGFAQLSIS
Description: as §1

kinases in BCWM.1 cells [9] = target: kinases in BCWM.1 cells (Homo sapiens, UniProt P12931); details: SRC; Lys1; 1 μM, 90 min; GF
kinases in BCWM.1 cells (Homo sapiens, UniProt P12931), sequence (P12931 2-536 limits assumed): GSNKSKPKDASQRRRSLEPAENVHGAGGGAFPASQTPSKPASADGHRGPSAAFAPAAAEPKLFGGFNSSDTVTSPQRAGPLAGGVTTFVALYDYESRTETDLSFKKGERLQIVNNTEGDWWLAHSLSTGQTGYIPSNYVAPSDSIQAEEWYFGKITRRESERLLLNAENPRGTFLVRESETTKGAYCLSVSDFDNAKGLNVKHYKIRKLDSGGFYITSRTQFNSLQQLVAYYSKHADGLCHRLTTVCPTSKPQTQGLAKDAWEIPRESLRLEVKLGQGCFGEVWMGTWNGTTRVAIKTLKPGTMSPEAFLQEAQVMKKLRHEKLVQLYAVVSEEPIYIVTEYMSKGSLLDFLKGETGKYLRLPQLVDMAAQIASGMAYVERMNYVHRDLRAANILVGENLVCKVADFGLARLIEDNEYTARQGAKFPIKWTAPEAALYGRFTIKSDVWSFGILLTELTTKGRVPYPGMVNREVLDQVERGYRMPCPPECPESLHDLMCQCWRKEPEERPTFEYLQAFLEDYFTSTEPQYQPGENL
Description: as §1

kinases in BCWM.1 cells [10] = target: kinases in BCWM.1 cells (Homo sapiens, UniProt Q9UKE5); details: ZC2/TNIK; Lys1; 1 μM, 90 min; GF
Description: as §1

kinases in BCWM.1 cells [11] = target: kinases in BCWM.1 cells (Homo sapiens, UniProt Q8NEB9); details: PIK3C3; ATP; 1 μM, 90 min; GF
Description: as §1

kinases in BCWM.1 cells [12] = target: kinases in BCWM.1 cells (Homo sapiens, UniProt Q9Y2H1); details: NDR2; Lys2; 1 μM, 90 min; GF
kinases in BCWM.1 cells (Homo sapiens, UniProt Q9Y2H1), sequence (Q9Y2H1 2-464 limits assumed): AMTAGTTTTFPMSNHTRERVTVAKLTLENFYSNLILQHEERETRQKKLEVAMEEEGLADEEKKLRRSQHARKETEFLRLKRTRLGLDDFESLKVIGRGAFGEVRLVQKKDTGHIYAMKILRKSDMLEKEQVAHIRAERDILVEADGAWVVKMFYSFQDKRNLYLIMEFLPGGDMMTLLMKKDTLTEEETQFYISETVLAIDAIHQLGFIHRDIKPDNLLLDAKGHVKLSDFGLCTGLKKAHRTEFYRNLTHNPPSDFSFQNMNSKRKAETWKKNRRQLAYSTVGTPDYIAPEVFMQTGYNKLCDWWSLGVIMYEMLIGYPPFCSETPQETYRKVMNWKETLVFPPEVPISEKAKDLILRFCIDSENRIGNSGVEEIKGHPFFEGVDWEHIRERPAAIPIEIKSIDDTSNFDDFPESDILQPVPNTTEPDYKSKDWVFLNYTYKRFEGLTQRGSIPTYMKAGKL
Description: as §1

kinases in BCWM.1 cells [13] = target: kinases in BCWM.1 cells (Homo sapiens, UniProt P19525); details: PKR; Lys2; 1 μM, 90 min; GF
kinases in BCWM.1 cells (Homo sapiens, UniProt P19525), sequence (P19525 2-551 limits assumed): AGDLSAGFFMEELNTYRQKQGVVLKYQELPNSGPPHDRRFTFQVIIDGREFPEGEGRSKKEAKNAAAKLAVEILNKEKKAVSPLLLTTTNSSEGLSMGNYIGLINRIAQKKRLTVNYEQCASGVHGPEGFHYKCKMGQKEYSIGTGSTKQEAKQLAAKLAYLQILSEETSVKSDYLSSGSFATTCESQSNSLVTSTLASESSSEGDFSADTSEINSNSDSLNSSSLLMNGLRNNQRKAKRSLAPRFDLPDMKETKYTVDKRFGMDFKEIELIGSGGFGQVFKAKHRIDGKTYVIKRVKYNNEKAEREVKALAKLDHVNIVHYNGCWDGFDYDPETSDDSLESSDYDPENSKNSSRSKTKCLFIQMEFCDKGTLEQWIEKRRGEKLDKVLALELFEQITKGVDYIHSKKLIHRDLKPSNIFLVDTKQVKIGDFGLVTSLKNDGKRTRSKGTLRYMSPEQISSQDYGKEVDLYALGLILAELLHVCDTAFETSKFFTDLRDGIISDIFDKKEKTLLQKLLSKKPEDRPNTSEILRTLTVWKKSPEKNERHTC
Description: as §1

kinases in BCWM.1 cells [14] = target: kinases in BCWM.1 cells (Homo sapiens, UniProt Q15349); details: RSK3 domain1; Lys2; 1 μM, 90 min; GF
Description: as §1

kinases in BCWM.1 cells [15] = target: kinases in BCWM.1 cells (Homo sapiens, UniProt Q15418); details: Lys2, 1 μM, 90 min, GF
Description: as §1

kinases in BCWM.1 cells [16] = target: kinases in BCWM.1 cells (Homo sapiens, UniProt Q16816); details: PHKg1; Protein Kinase Domain; 1 μM, 90 min; GF
Description: as §1

kinases in BCWM.1 cells [17] = target: kinases in BCWM.1 cells (Homo sapiens, UniProt Q96S44); details: PRPK; ATP Loop; 1 μM, 90 min; GF
Description: as §1

kinases in BCWM.1 cells [18] = target: kinases in BCWM.1 cells (Homo sapiens, UniProt Q8TBX8); details: PIP4K2C; ATP; 1 μM, 90 min; GF
kinases in BCWM.1 cells (Homo sapiens, UniProt Q8TBX8), sequence (Q8TBX8 2-421 limits assumed): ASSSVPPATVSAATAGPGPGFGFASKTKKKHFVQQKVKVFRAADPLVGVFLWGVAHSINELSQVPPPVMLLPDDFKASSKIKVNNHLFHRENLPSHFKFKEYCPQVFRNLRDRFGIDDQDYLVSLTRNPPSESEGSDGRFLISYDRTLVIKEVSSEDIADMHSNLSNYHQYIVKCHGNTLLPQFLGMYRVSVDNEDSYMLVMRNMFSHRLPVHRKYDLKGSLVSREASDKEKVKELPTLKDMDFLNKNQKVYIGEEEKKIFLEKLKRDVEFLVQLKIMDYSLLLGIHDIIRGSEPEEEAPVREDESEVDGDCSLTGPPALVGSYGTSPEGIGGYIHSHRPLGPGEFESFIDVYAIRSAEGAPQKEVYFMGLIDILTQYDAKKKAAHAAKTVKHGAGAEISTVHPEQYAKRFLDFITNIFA
Description: as §1

kinases in BCWM.1 cells [19] = target: kinases in BCWM.1 cells (Homo sapiens, UniProt Q9UL54); details: TAO2; Lys2; 1 μM, 90 min; GF
Description: as §1

kinases in BCWM.1 cells [20] = target: kinases in BCWM.1 cells (Homo sapiens, UniProt O15530); details: PDK1; Lys1; 1 μM, 90 min; GF
Description: as §1

kinases in BCWM.1 cells [21] = target: kinases in BCWM.1 cells (Homo sapiens, UniProt Q15208); details: NDR1; Lys2; 1 μM, 90 min; GF
kinases in BCWM.1 cells (Homo sapiens, UniProt Q15208), sequence (Q15208 2-465 limits assumed): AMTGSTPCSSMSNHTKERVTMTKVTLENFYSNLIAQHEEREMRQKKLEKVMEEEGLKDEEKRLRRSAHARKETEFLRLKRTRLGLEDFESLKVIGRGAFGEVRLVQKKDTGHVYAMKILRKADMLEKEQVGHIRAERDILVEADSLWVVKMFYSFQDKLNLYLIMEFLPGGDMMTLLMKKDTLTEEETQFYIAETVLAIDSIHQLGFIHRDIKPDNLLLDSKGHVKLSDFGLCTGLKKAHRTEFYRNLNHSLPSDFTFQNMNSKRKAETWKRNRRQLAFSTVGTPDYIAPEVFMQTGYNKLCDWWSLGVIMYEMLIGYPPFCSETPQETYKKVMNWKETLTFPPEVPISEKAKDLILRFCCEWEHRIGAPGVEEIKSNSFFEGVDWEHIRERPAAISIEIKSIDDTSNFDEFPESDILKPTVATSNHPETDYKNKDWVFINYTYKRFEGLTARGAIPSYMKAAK
Description: as §1

kinases in BCWM.1 cells [22] = target: kinases in BCWM.1 cells (Homo sapiens, UniProt Q9BZL6); details: PKD2; Lys1; 1 μM, 90 min; GF
Description: as §1

kinases in BCWM.1 cells [23] = target: kinases in BCWM.1 cells (Homo sapiens, UniProt Q8TD19); details: NEK9; Lys2; 1 μM, 90 min; GF
Description: as §1

kinases in BCWM.1 cells [24] = target: kinases in BCWM.1 cells (Homo sapiens, UniProt Q13523); details: PRP4; Lys2; 1 μM, 90 min; GF
kinases in BCWM.1 cells (Homo sapiens, UniProt Q13523), sequence (Q13523 2-1007 limits assumed): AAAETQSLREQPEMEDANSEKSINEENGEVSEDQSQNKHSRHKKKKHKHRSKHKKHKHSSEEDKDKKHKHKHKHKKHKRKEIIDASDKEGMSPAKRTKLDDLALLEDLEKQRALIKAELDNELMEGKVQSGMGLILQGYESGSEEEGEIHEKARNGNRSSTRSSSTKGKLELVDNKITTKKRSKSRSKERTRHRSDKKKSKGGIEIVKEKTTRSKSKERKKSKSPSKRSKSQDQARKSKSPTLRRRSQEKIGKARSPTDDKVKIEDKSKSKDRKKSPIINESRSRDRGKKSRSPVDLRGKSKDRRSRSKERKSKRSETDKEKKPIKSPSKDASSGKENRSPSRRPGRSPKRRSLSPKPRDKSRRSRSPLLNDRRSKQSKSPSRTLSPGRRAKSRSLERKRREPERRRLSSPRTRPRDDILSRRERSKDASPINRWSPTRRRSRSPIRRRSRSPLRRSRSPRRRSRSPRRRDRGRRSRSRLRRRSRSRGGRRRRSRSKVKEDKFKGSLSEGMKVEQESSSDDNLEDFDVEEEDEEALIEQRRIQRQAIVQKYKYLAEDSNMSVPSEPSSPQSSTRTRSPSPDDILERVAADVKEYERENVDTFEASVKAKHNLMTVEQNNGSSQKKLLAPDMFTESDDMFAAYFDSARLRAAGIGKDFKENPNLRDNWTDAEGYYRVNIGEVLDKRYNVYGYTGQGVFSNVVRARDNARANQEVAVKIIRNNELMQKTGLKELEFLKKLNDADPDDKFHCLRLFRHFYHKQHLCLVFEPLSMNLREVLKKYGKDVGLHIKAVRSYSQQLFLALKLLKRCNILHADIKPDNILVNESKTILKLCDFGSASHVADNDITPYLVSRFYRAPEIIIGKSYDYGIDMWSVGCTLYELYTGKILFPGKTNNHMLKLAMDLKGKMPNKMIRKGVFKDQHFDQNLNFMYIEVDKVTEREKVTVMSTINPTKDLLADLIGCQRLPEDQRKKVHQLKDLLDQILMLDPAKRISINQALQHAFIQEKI
Description: as §1

kinases in BCWM.1 cells [25] = target: kinases in BCWM.1 cells (Homo sapiens, UniProt Q16512); details: PKN1; Lys1; 1 μM, 90 min; GF
Description: as §1

kinases in BCWM.1 cells [26] = target: kinases in BCWM.1 cells (Homo sapiens, UniProt O94921)
Description: as §1

CCC(=O)N1CC[C@H](Nc2nccc(Nc3ncc(C(=O)Nc4c(C)cccc4C)s3)n2)C1 [Example I-9]
% change of MS signal compared to control sample (kinases in BCWM.1 cells [1]): 9.6%
% change of MS signal compared to control sample (kinases in BCWM.1 cells [2]; RSK2 domain1): −8.4%
% change of MS signal compared to control sample (kinases in BCWM.1 cells [2]; RSK2 domain2): 1.6%
% change of MS signal compared to control sample (kinases in BCWM.1 cells [3]): −9.7%
% change of MS signal compared to control sample (kinases in BCWM.1 cells [4]): −8.3%
% change of MS signal compared to control sample (kinases in BCWM.1 cells [5]): −2.3%
% change of MS signal compared to control sample (kinases in BCWM.1 cells [6]; Lys2): 9.8%
% change of MS signal compared to control sample (kinases in BCWM.1 cells [6]; Protein Kinase Domain): 8.7%
% change of MS signal compared to control sample (kinases in BCWM.1 cells [7]; ABL, ARG, Activation Loop): 46.1% and 75.4%
% change of MS signal compared to control sample (kinases in BCWM.1 cells [7]; ABL, ARG, Lys1): 40.6% and 71.8%
% change of MS signal compared to control sample (kinases in BCWM.1 cells [7]; AurA, AurB, AurC, ATP Loop): 5.5% and 2.8%
% change of MS signal compared to control sample (kinases in BCWM.1 cells [7]; CK1g1, CK1g2, CK1g3, ATP Loop): −8.2% and −4.7%
% change of MS signal compared to control sample (kinases in BCWM.1 cells [7]; FYN, SRC, YES, Activation Loop): 72.5% and 80.4%
% change of MS signal compared to control sample (kinases in BCWM.1 cells [7]; JNK1, JNK2, JNK3, Lys2): −7% and 0.5%
% change of MS signal compared to control sample (kinases in BCWM.1 cells [7]; KSR1, KSR2, Activation Loop): −14.6% and −16.2%
% change of MS signal compared to control sample (kinases in BCWM.1 cells [7]; MAP2K1, MAP2K2, Lys1): −9.2% and −1.1%
% change of MS signal compared to control sample (kinases in BCWM.1 cells [7]; MAP2K1, MAP2K2, Lys2): −6.4% and −4.5%
% change of MS signal compared to control sample (kinases in BCWM.1 cells [7]; MAP3K2, MAP3K3, Lys2): 0.7% and 6.8%
% change of MS signal compared to control sample (kinases in BCWM.1 cells [7]; MARK3, MARK4, Lys1): −10.4% and −7.1%
% change of MS signal compared to control sample (kinases in BCWM.1 cells [7]; MER, TYRO3, Activation Loop): −14.7%
% change of MS signal compared to control sample (kinases in BCWM.1 cells [7]; MST4, YSK1, Lys2, 90 min): 15.2%
% change of MS signal compared to control sample (kinases in BCWM.1 cells [7]; NEK6, NEK7, Lys2, 90 min): −0.8%
% change of MS signal compared to control sample (kinases in BCWM.1 cells [7]; PCTAIRE2, PCTAIRE3, Lys1, 90 min): −0.8%
% change of MS signal compared to control sample (kinases in BCWM.1 cells [7]; PI4KA, PI4KAP2, ATP, 90 min): 3.6%
% change of MS signal compared to control sample (kinases in BCWM.1 cells [7]; PKACa, PKCb, Lys2, 90 min): 25.3%
% change of MS signal compared to control sample (kinases in BCWM.1 cells [7]; ROCK1, ROCK2, Lys2, 90 min): 1.7%
% change of MS signal compared to control sample (kinases in BCWM.1 cells [7]; RSK1 domain1, RSK2 domain1, RSK3 domain1, Lys2, 90 min): −6.1%
% change of MS signal compared to control sample (kinases in BCWM.1 cells [7]; SRPK1, SRPK2, Lys1, 90 min): 2.5%
% change of MS signal compared to control sample (kinases in BCWM.1 cells [7]; TAO1, TAO3, Lys2, 90 min): 9.3%
% change of MS signal compared to control sample (kinases in BCWM.1 cells [7]; Wnk1, Wnk2, Wnk3, Lys2, 90 min): 4.4%
% change of MS signal compared to control sample (kinases in BCWM.1 cells [7]; Wnk1, Wnk2, ATP Loop, 90 min): 7.6%
% change of MS signal compared to control sample (kinases in BCWM.1 cells [7]; ZC1/HGK, ZC2/TNIK, ZC3/MINK, Lys2, 90 min): 1.8%
% change of MS signal compared to control sample (kinases in BCWM.1 cells [7]; p38d, p38g, Lys2, 90 min): −27.1%
% change of MS signal compared to control sample (kinases in BCWM.1 cells [8]): 13.9%
% change of MS signal compared to control sample (kinases in BCWM.1 cells [9]): 86.1%
% change of MS signal compared to control sample (kinases in BCWM.1 cells [10]): 11.4%
% change of MS signal compared to control sample (kinases in BCWM.1 cells [11]): −9.4%
% change of MS signal compared to control sample (kinases in BCWM.1 cells [12]): 2.9%
% change of MS signal compared to control sample (kinases in BCWM.1 cells [13]): −3.8%
% change of MS signal compared to control sample (kinases in BCWM.1 cells [14]): −4.1%
% change of MS signal compared to control sample (kinases in BCWM.1 cells [15]; RSK1 domain1): −5.1%
% change of MS signal compared to control sample (kinases in BCWM.1 cells [15]; RSK1 domain2): −4.1%
% change of MS signal compared to control sample (kinases in BCWM.1 cells [16]): −26.2%
% change of MS signal compared to control sample (kinases in BCWM.1 cells [17]): −1.2%
% change of MS signal compared to control sample (kinases in BCWM.1 cells [18]): −3.9%
% change of MS signal compared to control sample (kinases in BCWM.1 cells [19]): 11.5%
% change of MS signal compared to control sample (kinases in BCWM.1 cells [20]): −6.6%
% change of MS signal compared to control sample (kinases in BCWM.1 cells [21]): 2.8%
% change of MS signal compared to control sample (kinases in BCWM.1 cells [22]): −4.2%
% change of MS signal compared to control sample (kinases in BCWM.1 cells [23]): −12.6%
% change of MS signal compared to control sample (kinases in BCWM.1 cells [24]): −15.7%
% change of MS signal compared to control sample (kinases in BCWM.1 cells [25]): −0.9%
% change of MS signal compared to control sample (kinases in BCWM.1 cells [26]): −3.1%
